Measurements from patent publication EP0230013A1, “New anthracycline derivatives, uses thereof as antitumor agent and production thereof” (ZAIDAN HOJIN BISEIBUTSU KAGAKU KENKYU KAI, priority 1985, dated 1987).
Like-named read-outs stand apart in the source and are kept apart here.

Columns and labels:
[1] = tested on: Leukemia L-1210 cells; experiment: Antitumor activity on leukemia in mice caused by Leukemia L-1210 cells (Test I); assay type: in vivo; design: key: *: shows that a toxicity or its sign of the compound tested in the animals tested such as death due to toxicity or weight loss was observed; settings: L-1210 mice
Experimental: Antitumor activity on leukemia in CDF, mice caused by Leukemia L-1210 cells
In this test, Compound Nos. I and 2 of this invention were assessed in comparison with daunomycin and adriamycin on their tumor inhibitory activity against leukemia in mice. Thus, CDF, mice were intraperitoneally transplanted with cells of Leukemia L-1210 (I ^x 10^5 cells/mouse). From 24 hours after i.p. transplantation of L 1210 cells, each compound to be tested was administered intraperitoneally for 9 consecutive days at once per day. Observation was made for 60 days where survival days of each mouse tested were recorded and percentage increase in lifespan of the treated mice, in comparison with control test wherein mice were treated only, with the administration of physiological saline, was calculated as T/C % where T is the mean survival days of the treated animals and C is the mean survival days of the untreated control animals.The test results are shown in Table I.

[2] = tested on: Leukemia P 388; settings: cited from earlier work
[3] = tested on: Leukemia L-1210; settings: dosage of 25 mg/kg, single dose per day, intraperitoneally for 9 days, Leukemia L-1210 mice; cited from earlier work
[4] = Acid hydrolysis of the glycoside linkage, analysed by TLC (Test 2); assay type: physicochemical
Text: A further advantage of the anthracycline derivatives of formula (I) according to this invention is in that the susceptibility of the glycoside linkage to be broken by acid hydrolysis is very low. This is, we believe, to be one of reasons why the compounds of this invention are of low toxicity. […] Of course, a high chemical stability of a compound in vitro is not always related to its stability against hydrolysis in vivo, but it may be assumed in view of high anticancer effects in vivo of the compounds of this invention that the glycoside linkage of those compounds is of high stability in vivo, too. In any case, it is true that such high chemical stability of the glycoside linkage of the compounds of this invnetion is advantageous in that it makes the handling of those compounds easy in chemical applications. Test 2 given below illustrates the high stability of the glycoside linkage of the compounds of this invention.
Daunomycin (I mg) was dissolved in a mixture (0.1 ml) of 0.2 N^*HCI-80% CH3CN-H,O (^* the 0.2 N concentration of HCI being of the said mixture) and the solution was heated in an oil bath at 61 -62°C for 30 minutes to cause the hydrolysis. […] The reaction solution was allowed to stand at room temperature to deposit daunomycinone as red crystals.
FTDM (0.7 mg) was suspended in a mixture (0.1 ml) of 0.2 N HCI-80% CH,CN-H20 and the suspension was stirred in an oil bath at 61 -62°C for 30 minutes.
A futher amount (0.3 ml) of the mixture of 0.2N HCI-80% CH3CN-H20 was added to the reaction mixture, when the mixture substantially became a solution with a little amount of insolubles. Then, it was heated to 61-62°C under stirring to give a homogeneous solution.

[5] = Dose 5 mg/kg/day i.p. for 9 days
[6] = 0.2 N HCl-80% CH3CN-H2O, 61 -62°C (about 60°C), 30 minutes

## COc1cccc2c1C(=O)c1c(O)c3c(c(O)c1C2=O)C[C@@](O)(C(=O)CO)C[C@@H]3O[C@H]1C[C@H](N)[C@H](O)[C@H](C)O1 [Adriamycin, adriamycin]
[1]; [5]
  toxicity or its sign (death due to toxicity or weight loss): *

## COc1cccc2c1C(=O)c1c(O)c3c(c(O)c1C2=O)C[C@@](O)(C(C)=O)C[C@@H]3O[C@@H]1O[C@@H](C)[C@@H](OC(C)=O)[C@@H](OC(C)=O)[C@H]1I [Compound NSC 327,472, 7-O-(3,4-di-O-acetyl-2,6-dideoxy-2-iodo-a-L-talohexopyranosyl)daunomycinone]
[2]; dosage of 12.5 mg/kg to 25 mg/kg
  increase (%) of survival days of the Leukemia P 388-inoculated mice treated: 172%
[2]; dosage of 150 mg/kg
  increase (%) of survival days of the Leukemia P 388-inoculated mice treated: 162%

## COc1cccc2c1C(=O)c1c(O)c3c(c(O)c1C2=O)C[C@@](O)(C(C)=O)C[C@@H]3O[C@@H]1O[C@@H](C)[C@H](OC(C)=O)[C@@H](OC(C)=O)[C@H]1I [Compound NSC 331,962, 7-O-(3,4-di-O-acetyl-2,6-dideoxy-2-iodo-a-L-mannohexopyranosyl) daunomycinone]
[2]; dosage of 50 mg/kg, Leukemia P 388 mice
  increase (in %) of survival days of the mice treated, compared to the mice untreated (T/C, %): 247%
[3]
  increase (in %) of survival days of the mice treated, as compared to the mice untreated (T/C, %): 196%

## COc1cccc2c1C(=O)c1c(O)c3c(c(O)c1C2=O)C[C@@](O)(C(C)=O)C[C@@H]3O[C@@H]1O[C@@H](C)[C@@H](O)[C@@H](O)[C@H]1F [Compound No. 1, 7-O-(2,6-dideoxy-2-fluoro-α-L-talopyranosyl)daunomycinone]
[4]; [6]
  acid hydrolysis (TLC): presence of the spot of FTDM only
[4]; 0.2N HCl-80% CH3CN-H2O, 61-62°C, further 3 hours
  acid hydrolysis (TLC): the spot of FTDM only
[4]; 1 N HCl in acetonitrile-water (4:1), 61-62°C (about 60°C), 8 hours, listed as Compound No. I
  acid hydrolysis (TLC): remains substantially as it is,without being decomposed
[4]; 1 N HCl in acetonitrile-water (4:1), 61-62°C (about 60°C), 8 hours, listed as FTDM
  acid hydrolysis (TLC): a spot of a trace amount of daunomycinone appeared, but most of FTDM was also present as it was

## COc1cccc2c1C(=O)c1c(O)c3c(c(O)c1C2=O)C[C@@](O)(C(C)=O)C[C@@H]3O[C@H]1C[C@H](N)[C@H](O)[C@H](C)O1 [Daunomycin, daunomycin]
[4]; [6]
  acid hydrolysis (TLC): disappearance of the spot of daunomycin
[4]; 0.2 N HCl-80% CH3CN-H2O, 61 -62°C (about 60°C), 30 minutes, listed as daunomycin
  acid hydrolysis (TLC): completely decomposed
[1]; Dose 2.5 mg/kg/day i.p. for 9 days
  toxicity or its sign (death due to toxicity or weight loss): *
[1]; [5]
  toxicity or its sign (death due to toxicity or weight loss): *
